System: human PDA tumors
Assay: Median survival by HMGA2/GATA6 status (IHC, tissue microarray of human PDA tumors) and first-line therapy
Type: in vivo
Conditions: first-line therapy, FIG. 12A-12B
Procedure: Expression levels of HMGA2 and GATA6 were determined separately in Tissue microarray comprising human PDA tumors from over 800 patients, along with matched (normal pancreatic tissue) controls and correlated to clinical data (stage at diagnosis, treatment history). These samples were stained and scored for HMGA2 (FIG. 9A) and GATA6.

Nc1ccn([C@@H]2O[C@H](CO)[C@@H](O)C2(F)F)c(=O)n1 [Gemcitabine]
overall median survival of HMGA2^high/GATA6^low tumors compared to HMGA2^low/GATA6^high tumors: overall low median survival

— US20240384353A1, “METHODS OF TREATING PANCREATIC CANCER” (Fred Hutchinson Cancer Center, priority 2023, published 2024)
